The assay relates to HIV 1. Briefly: Inhibition of HIV-induced syncytium formation in cultures of human lymphocytes (test of preparations against HIV in cell culture, microscopic reading on day 4 after infection). It is filed as cell-based. The note with it: Human immunodeficiency virus 1, 96 h, footnote of Tabelle 1, AZT alone, read-out: MHK-Wert. The protocol: RPMI pH 6,8 Komplettes Medium enthält zusätzlich 20 % foetales Kälberserum und 20 IU/ml rekombinantes Interleukin 2.
Aus frischem Spenderblut mittels Ficoll^R-Gradientenzentrifugation isolierte Lymphozyten werden unter Zusatz von 2 µg/ml Phytohämagglutinin (Wellcome) in komplettem Medium 36 h bei 37°C unter 5 % CO₂ kultiviert. Die Zellen werden nach Zusatz von 10 % DMSO bei einer Zelldichte von 5 x 10⁶ eingefroren und in flüssigem Stickstoff gelagert. Für den Versuch werden die Zellen aufgetaut, in RPMI-Medium gewaschen und in komplettem Medium 3 - 4 Tage kultiviert.
Die Prüfpräparate werden in komplettem Medium gelöst, üblicherweise in einer Konzentration von 1,2 mg/ml. In 24er Multiwell-Schalen werden jeweils 0,5 ml komplettes Medium gegeben. Nach Zusatz von 0,1 ml des gelösten Präparates wird durch Übertragung von jeweils 0,1 ml das Präparat in einer geometrischen Verdünnungsreihe, […], verdünnt. Zu allen Ansätzen werden 0,4 ml einer Suspension mit 5 x 10⁵ Lymphozyten pro ml gegeben.
Die Ansätze werden mit 0,1 ml eines Überstandes von HIV 1 infizierten Lymphozyten versetzt, der so eingestellt ist, daß im Ansatz der cytopathogene Effekt nach 3 - 4 Tagen erkennbar ist. Die Multiplizität der infektiösen Einheit beträgt hierbei 0,01 - 0,02.
Der Versuchsansatz enhält damit folgende Komponenten in komplettem Medium [formula] […]

≈ marks a conversion by molar mass, not a printed value.

Consider `Cc1cn([C@H]2C[C@H](N=[N+]=[N-])[C@@H](CO)O2)c(=O)[nH]c1=O` [3′-Azido-3′-deoxythymidin], for which the MIC amounted to 0.1 µg/mL (≈ 0.374 µM).

The values are drawn from EP0377846A1, “Pharmaceutical mixture preparation containing nucleoside derivatives and pentosan polysulfate, and its manufacture and use” (HOECHST AKTIENGESELLSCHAFT, priority 1988, dated 1990).
